Measured values reported in ChEMBL document CHEMBL1201862, “PubChem BioAssay data set” (2004).
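Exposure lasted 48 hours, with cells grown in 96-well plates and compounds tested at five concentrations. GI50 marks 50% less growth.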 Activity calls are given as the source filed them. Cut-off read from the data, not from the text of the source: active = GI50 up to about 1.1 µM and inactive = higher.

Experiments:
Assay in all cases: NCI-60 cell line screen, 48 h
SNB-19 = test system: SNB-19
U-251 = test system: U-251
NCI-H226 = test system: NCI-H226
CCRF-CEM = test system: CCRF-CEM
M14 = test system: M14
KM-20L2 = test system: KM-20L2
NCI-H23 = test system: NCI-H23
LOX IMVI = test system: LOX IMVI
ACHN = test system: ACHN
NCI-H522 = test system: NCI-H522
SF-268 = test system: SF-268
SNB-78 = test system: SNB-78
Malme-3M = test system: Malme-3M
SW-620 = test system: SW-620
SNB-75 = test system: SNB-75
XF498 = test system: XF498
RXF 631 = test system: RXF 631
OVCAR-5 = test system: OVCAR-5
MOLT-4 = test system: MOLT-4
HCT-116 = test system: HCT-116
UACC-62 = test system: UACC-62
M19-MEL = test system: M19-MEL
HCC 2998 = test system: HCC 2998
COLO 205 = test system: COLO 205
RXF 393 = test system: RXF 393
786-0 = test system: 786-0
DLD-1 = test system: DLD-1
DMS-114 = test system: DMS-114
LXFL 529 = test system: LXFL 529
SF-539 = test system: SF-539
HOP-92 = test system: HOP-92
EKVX = test system: EKVX
KM12 = test system: KM12
UO-31 = test system: UO-31
HOP-62 = test system: HOP-62
IGROV-1 = test system: IGROV-1
UACC-257 = test system: UACC-257
OVCAR-3 = test system: OVCAR-3
HOP-18 = test system: HOP-18
SK-MEL-28 = test system: SK-MEL-28
HT-29 = test system: HT-29
A498 = test system: A498
SK-MEL-2 = test system: SK-MEL-2
OVCAR-4 = test system: OVCAR-4
TK-10 = test system: TK-10
OVCAR-8 = test system: OVCAR-8
SK-MEL-5 = test system: SK-MEL-5
A549 = test system: A549
K562 = test system: K562
NCI-H460 = test system: NCI-H460
DMS-273 = test system: DMS-273
SF-295 = test system: SF-295
HCT-15 = test system: HCT-15
SN12C = test system: SN12C
SK-OV-3 = test system: SK-OV-3
HL-60 = test system: HL-60
RPMI-8226 = test system: RPMI-8226
CAKI-1 = test system: CAKI-1
SR = test system: SR

C/C(=N/NC(=O)c1ccccc1O)c1ccc(/C(C)=N\NC(=O)c2ccccc2O)c2nc3cc(C)c(C)cc3nc12
GI50 (SNB-19): > 100 µM (inactive)
GI50 (U-251): > 100 µM (inactive)
GI50 (NCI-H226): > 100 µM (inactive)
GI50 (CCRF-CEM): > 100 µM (inactive)
GI50 (M14): > 100 µM (inactive)
GI50 (KM-20L2): > 100 µM (inactive)
GI50 (NCI-H23): > 100 µM (inactive)
GI50 (LOX IMVI): > 100 µM (inactive)
GI50 (ACHN): > 100 µM (inactive)
GI50 (NCI-H522): > 100 µM (inactive)
GI50 (SF-268): > 100 µM (inactive)
GI50 (SNB-78): > 100 µM (inactive)
GI50 (Malme-3M): > 100 µM (inactive)
GI50 (SW-620): > 100 µM (inactive)
GI50 (SNB-75): 38.7 µM (inactive)
GI50 (XF498): > 100 µM (inactive)
GI50 (RXF 631): > 100 µM (inactive)
GI50 (OVCAR-5): > 100 µM (inactive)
GI50 (MOLT-4): > 100 µM (inactive)
GI50 (HCT-116): > 100 µM (inactive)
GI50 (UACC-62): > 100 µM (inactive)
GI50 (M19-MEL): > 100 µM (inactive)
GI50 (HCC 2998): > 100 µM (inactive)
GI50 (COLO 205): > 100 µM (inactive)
GI50 (RXF 393): > 100 µM (inactive)
GI50 (786-0): > 100 µM (inactive)
GI50 (DLD-1): > 100 µM (inactive)
GI50 (DMS-114): > 100 µM (inactive)
GI50 (LXFL 529): > 100 µM (inactive)
GI50 (SF-539): > 100 µM (inactive)
GI50 (HOP-92): 54.7 µM (inactive)
GI50 (EKVX): > 100 µM (inactive)
GI50 (KM12): > 100 µM (inactive)
GI50 (UO-31): > 100 µM (inactive)
GI50 (HOP-62): > 100 µM (inactive)
GI50 (IGROV-1): > 100 µM (inactive)
GI50 (UACC-257): > 100 µM (inactive)
GI50 (OVCAR-3): > 100 µM (inactive)
GI50 (HOP-18): 44.2 µM (inactive)
GI50 (SK-MEL-28): > 100 µM (inactive)
GI50 (HT-29): > 100 µM (inactive)
GI50 (A498): > 100 µM (inactive)
GI50 (SK-MEL-2): > 100 µM (inactive)
GI50 (OVCAR-4): > 100 µM (inactive)
GI50 (TK-10): > 100 µM (inactive)
GI50 (OVCAR-8): > 100 µM (inactive)
GI50 (SK-MEL-5): > 100 µM (inactive)
GI50 (A549): > 100 µM (inactive)
GI50 (K562): > 100 µM (inactive)
GI50 (NCI-H460): > 100 µM (inactive)
GI50 (DMS-273): > 100 µM (inactive)
GI50 (SF-295): > 100 µM (inactive)
GI50 (HCT-15): > 100 µM
GI50 (SN12C): > 100 µM (inactive)
GI50 (SK-OV-3): > 100 µM (inactive)

CCc1cccc(C)c1NC(=O)CC1Sc2ccccc2NC1=O (stereo unspecified)
GI50 (SNB-19): 57.4 µM (inactive)
GI50 (U-251): 31.5 µM (inactive)
GI50 (NCI-H226): 16 µM (inactive)
GI50 (CCRF-CEM): 25.2 µM (inactive)
GI50 (M14): 39.4 µM (inactive)
GI50 (KM-20L2): 46.5 µM (inactive)
GI50 (NCI-H23): 38 µM (inactive)
GI50 (LOX IMVI): 48.8 µM (inactive)
GI50 (ACHN): 40.8 µM (inactive)
GI50 (NCI-H522): 20 µM (inactive)
GI50 (HL-60): 18.1 µM (inactive)
GI50 (SF-268): 50.7 µM (inactive)
GI50 (SNB-78): 34.4 µM (inactive)
GI50 (Malme-3M): 27.3 µM (inactive)
GI50 (SW-620): 37.8 µM (inactive)
GI50 (SNB-75): 10.7 µM (inactive)
GI50 (XF498): 72.9 µM (inactive)
GI50 (RXF 631): 35.8 µM (inactive)
GI50 (OVCAR-5): 42.4 µM (inactive)
GI50 (MOLT-4): 29.2 µM (inactive)
GI50 (HCT-116): 34.3 µM (inactive)
GI50 (UACC-62): 46.9 µM (inactive)
GI50 (M19-MEL): 45.4 µM (inactive)
GI50 (HCC 2998): 22.4 µM (inactive)
GI50 (RPMI-8226): 24.4 µM (inactive)
GI50 (COLO 205): 53.7 µM (inactive)
GI50 (RXF 393): 16.9 µM (inactive)
GI50 (786-0): 29.2 µM (inactive)
GI50 (DLD-1): 28.4 µM (inactive)
GI50 (DMS-114): 57.3 µM (inactive)
GI50 (LXFL 529): 56.8 µM (inactive)
GI50 (SF-539): 31.9 µM (inactive)
GI50 (HOP-92): 32.8 µM (inactive)
GI50 (EKVX): 91.8 µM (inactive)
GI50 (KM12): 34.9 µM (inactive)
GI50 (UO-31): 30.1 µM (inactive)
GI50 (HOP-62): 15.1 µM (inactive)
GI50 (IGROV-1): 88.7 µM (inactive)
GI50 (UACC-257): 11.4 µM (inactive)
GI50 (OVCAR-3): 32.6 µM (inactive)
GI50 (HOP-18): 19.5 µM (inactive)
GI50 (SK-MEL-28): 84.7 µM (inactive)
GI50 (A498): 28.6 µM (inactive)
GI50 (SK-MEL-2): 33.6 µM (inactive)
GI50 (OVCAR-4): 75.3 µM (inactive)
GI50 (TK-10): 93.1 µM (inactive)
GI50 (CAKI-1): 60.5 µM (inactive)
GI50 (OVCAR-8): 65.5 µM (inactive)
GI50 (SK-MEL-5): 23.4 µM (inactive)
GI50 (A549): 44.2 µM (inactive)
GI50 (K562): 23.8 µM (inactive)
GI50 (NCI-H460): 34.4 µM (inactive)
GI50 (DMS-273): 48.9 µM (inactive)
GI50 (SF-295): 95.7 µM (inactive)
GI50 (HCT-15): 39.3 µM
GI50 (SN12C): > 100 µM (inactive)
GI50 (SK-OV-3): 75.7 µM (inactive)

CC(=O)Oc1c(Br)ccc2cc(C(Br)Br)c(C(=O)c3ccccc3)nc12
GI50 (SNB-19): 19.9 µM (inactive)
GI50 (U-251): 19.2 µM (inactive)
GI50 (NCI-H226): 19.7 µM (inactive)
GI50 (M14): 21.2 µM (inactive)
GI50 (KM-20L2): 19.4 µM (inactive)
GI50 (NCI-H23): 20 µM (inactive)
GI50 (LOX IMVI): 23.9 µM (inactive)
GI50 (ACHN): 22.1 µM (inactive)
GI50 (NCI-H522): 4.21 µM (inactive)
GI50 (SF-268): 25.7 µM (inactive)
GI50 (SNB-78): 27.7 µM (inactive)
GI50 (Malme-3M): 24.9 µM (inactive)
GI50 (SW-620): 22.4 µM (inactive)
GI50 (SNB-75): 20.5 µM (inactive)
GI50 (XF498): 14.8 µM (inactive)
GI50 (RXF 631): 23.5 µM (inactive)
GI50 (OVCAR-5): 17.3 µM (inactive)
GI50 (MOLT-4): 20.7 µM (inactive)
GI50 (HCT-116): 21.8 µM (inactive)
GI50 (UACC-62): 20 µM (inactive)
GI50 (M19-MEL): 22.3 µM (inactive)
GI50 (HCC 2998): 17.9 µM (inactive)
GI50 (RPMI-8226): > 10 µM (inactive)
GI50 (COLO 205): 24.4 µM (inactive)
GI50 (RXF 393): 17.9 µM (inactive)
GI50 (786-0): 22.6 µM (inactive)
GI50 (DLD-1): 24 µM (inactive)
GI50 (DMS-114): 24.8 µM (inactive)
GI50 (LXFL 529): 30.6 µM (inactive)
GI50 (SF-539): 18.6 µM (inactive)
GI50 (EKVX): 22.5 µM (inactive)
GI50 (KM12): 19.6 µM (inactive)
GI50 (UO-31): 19.2 µM (inactive)
GI50 (HOP-62): 19.1 µM (inactive)
GI50 (IGROV-1): 29.1 µM (inactive)
GI50 (UACC-257): 1.88 µM (inactive)
GI50 (OVCAR-3): > 10 µM (inactive)
GI50 (HOP-18): 17.2 µM (inactive)
GI50 (SK-MEL-28): 15.9 µM (inactive)
GI50 (HT-29): 19.2 µM (inactive)
GI50 (SK-MEL-2): 20.7 µM (inactive)
GI50 (OVCAR-4): 5.01 µM (inactive)
GI50 (SR): 28.1 µM (inactive)
GI50 (TK-10): 17.7 µM (inactive)
GI50 (CAKI-1): 3.78 µM (inactive)
GI50 (OVCAR-8): 23.6 µM (inactive)
GI50 (SK-MEL-5): 19.1 µM (inactive)
GI50 (A549): 24.3 µM (inactive)
GI50 (K562): 20.2 µM (inactive)
GI50 (NCI-H460): 19.9 µM (inactive)
GI50 (DMS-273): 20.6 µM (inactive)
GI50 (SF-295): 18.7 µM (inactive)
GI50 (HCT-15): 22.8 µM
GI50 (SN12C): 20 µM (inactive)
